Read-outs that look alike come from different tables or passages of the source. Square brackets hold non-standard residues; d marks the D form. Ends that are not written are not given here. Peptide text beside a SMILES is read from it.
Tests used:
DRB1*0301 (DR3w17) = target: T1, DRB1*0301 (DR3w17) (Homo sapiens, UniProt P01903+P01911, A100K/A102G/A103R/A169T/F55Y/I96L/K41T/L162R/M171V/P40S/Q125H/Q178H/Q39Y/R42S/S66N/T106N/T262R/W38E/Y61H); assay: Class II peptide-binding assay, DR3 (pH 4.5);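 further: unlabeled peptide competing with a radiolabeled probe peptide for binding to affinity-purified HLA-DR3, IC50 regarded as an approximation of Kd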
T1 construct: used as sources of human HLA class II molecules; endogenous in cells; host or cells: MAT (EBV-transformed homozygous B cell line)
T1 sequence (P01903 26-254, other chains not shown): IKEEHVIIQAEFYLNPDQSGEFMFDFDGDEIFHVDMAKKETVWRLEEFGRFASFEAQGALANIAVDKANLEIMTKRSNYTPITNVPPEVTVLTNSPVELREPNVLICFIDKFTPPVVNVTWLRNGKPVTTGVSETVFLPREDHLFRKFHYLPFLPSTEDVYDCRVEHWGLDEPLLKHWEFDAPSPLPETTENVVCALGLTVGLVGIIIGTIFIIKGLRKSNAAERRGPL

DRB1*1101 (DR5w11) = target: T2, DRB1*1101 (DR5w11) (Homo sapiens, UniProt P01903+P01911, A100R/A169T/A87E/I96F/K41T/L162R/M171V/P40S/Q125H/Q178H/Q39Y/Q99D/R42S/S66Y/T262R/V115G/W38E); assay: Class II peptide-binding assay, DR5w11;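 further: competition by unlabeled test peptide against iodinated probe peptide binding to affinity-purified HLA-DR, class II amount titrated beforehand, half-maximal inhibitory concentration read as approximate Kd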
T2 construct: used as sources of human HLA class II molecules; endogenous in cells; host or cells: SWEIG (EBV-transformed homozygous B cell line)
T2 sequence (P01903 26-254, other chains not shown): as above

DRB5*0101 (DR2w2a) = target: T3, DRB5*0101 (DR2w2a) (Homo sapiens, UniProt P01903+Q30154); assay: Class II peptide-binding assay, DR2w2a (DR2w2B2);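 further: competitive binding assay: unlabeled peptide inhibiting binding of a radiolabeled probe peptide to purified DR molecules at pH 7.0, IC50 approximating Kd, lower means stronger binding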
T3 construct: used as sources of human HLA class II molecules; endogenous in cells; host or cells: GM3107 (EBV-transformed homozygous B cell line)

DRB1*0101 (DR1) = target: T4, DRB1*0101 (DR1) (Homo sapiens, UniProt P01903+P01911, A100R/D57E/F55L/F60I/F76Y/I96L/L162R/M171V/P40L/Q125E/R42F/V115G/Y59C); assay: Class II peptide-binding assay, DR1;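 further: competition assay: unlabeled test peptides inhibit binding of a radiolabeled probe peptide to purified DR, with half-maximal inhibition taken as an approximate dissociation constant Kd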
T4 construct: used as sources of human HLA class II molecules; endogenous in cells; host or cells: LG2 (EBV-transformed homozygous B cell line)
Method: (§1) Class II peptide-binding assays. […] These assays were chosen as to be representative of the most common DR alleles.
(§2) Radiolabeled peptides were iodinated using the chloramine-T method. […] In appropriate stoichiometric conditions, the IC50 of an unlabeled test peptide to the purified DR is a reasonable approximation of the affinity of interaction (Kd). Peptides were tested in two to four completely independent experiments. […] Final detergent concentration in the incubation mixture was 0.05% Nonidet P-40. Assays were performed at pH 7.0 with the exception of DR3, which was performed at pH 4.5, and DRw53, which was performed at pH 5.0.
(§3) All subsequent inhibition and direct binding assays were the performed using these class II concentrations.

DRB1*0401 (DR4w4) = target: T5, DRB1*0401 (DR4w4) (Homo sapiens, UniProt P01903+P01911, A100K/A169T/F76Y/I96L/K127E/L162R/M171V/N62H/P40V/Q125Y/R42H/S133A/S149N/S66Y/V115G/V209L/W38E); assay: Class II peptide-binding assay, DR4w4;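 further: unlabeled test peptides compete with a radiolabeled probe peptide for binding to affinity-purified HLA-DR, with DR amount titrated to capture a small fraction of label, IC50 approximating Kd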
T5 construct: used as sources of human HLA class II molecules; endogenous in cells; host or cells: PREISS (EBV-transformed homozygous B cell line)
Method: as §1, §2, §3

DRB10404 (DR4w14) = target: T6, DRB10404 (DR4w14) (Homo sapiens, UniProt P01903+P01911, A100R/A169T/F76Y/I96L/K127E/L162R/M171V/N62H/P40V/Q125Y/R42H/S133A/S149N/S66Y/V209L/W38E); assay: Class II peptide-binding assay, DR4w14;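 further: unlabeled peptides compete with a radiolabeled probe for binding to affinity-purified HLA-DR, neutral pH, class II amount titrated to bind a small fraction of label, IC50 approximates Kd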
T6 construct: used as sources of human HLA class II molecules; endogenous in cells; host or cells: BIN40 (EBV-transformed homozygous B cell line)

DRB1*0701 (DR7) = DRB1*0701 (DR7) (Homo sapiens, UniProt P01903+P01911, A100R/A102G/A103Q/D57E/D86V/E43K/F76Y/K127E/L162R/M171V/P40G/Q125H/Q99D/R33Q/R42Y/R54Q/S133A/S66F/T210M/V115G/Y107V/Y59L/Y89S); assay: Class II peptide-binding assay, DR7;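 further: unlabeled peptides compete with an iodinated probe peptide for binding to affinity-purified HLA-DR at neutral pH, DR amount titered to bind a small tracer fraction, IC50 approximating Kd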
[1] = read-out: DR3 nM (In IC50 Format), purified HLA DR3
[2] = read-out: DR5w11 nM (In IC50 Format), purified HLA DR5w11
[3] = read-out: DR2w2B2 nM (In IC50 Format), purified HLA DR2w2β2
[4] = read-out: DR1 nM (In IC50 Format), purified HLA DR1
[5] = read-out: DR4w4 nM (In IC50 Format), purified HLA DR4w4
[6] = read-out: DR4w14 nM (In IC50 Format), purified HLA DR4w14
[7] = read-out: DR7 nM (In IC50 Format), purified HLA DR7
[8] = read-out: In IC50 Format DR3, Table VIII
[9] = read-out: In IC50 Format DR5w11, Table VIII
[10] = read-out: In IC50 Format DR2w2β2, Table VIII
[11] = read-out: In IC50 Format DR1, Table VIII
[12] = read-out: In IC50 Format DR4w4, Table VIII
[13] = read-out: In IC50 Format DR4w14, Table VIII
[14] = read-out: In IC50 Format DR7, Table VIII
[15] = read-out: DR3 nM, Table VIII, In IC50 Format
[16] = read-out: DR5w11 nM, Table VIII, In IC50 Format
[17] = read-out: DR2w2B2 nM, Table VIII, In IC50 Format
[18] = read-out: DR1 nM, Table VIII, In IC50 Format
[19] = read-out: DR4w4 nM, Table VIII, In IC50 Format
[20] = read-out: DR4w14 nM, Table VIII, In IC50 Format
[21] = read-out: DR7 nM, Table VIII, In IC50 Format

Compound	IC50 (DRB1*0301 (DR3w17); [1])	IC50 (DRB1*1101 (DR5w11); [2])	IC50 (DRB5*0101 (DR2w2a); [3])	IC50 (DRB1*0101 (DR1); [4])	IC50 (DRB1*0401 (DR4w4); [5])	IC50 (DRB10404 (DR4w14); [6])	IC50 (DRB1*0701 (DR7); [7])	further results
RLANSLVHSSNNFGAILSS [Peptide 735.03]	25000 nM	202 nM	10000 nM	84.7 nM	11 nM	12.8 nM	556 nM	
FFKNIVTPRFFKNIVTPR [Peptide 613.03]								IC50 (DRB1*0301 (DR3w17); [8]): 75000 nM; IC50 (DRB1*1101 (DR5w11); [9]): 1670 nM; IC50 (DRB5*0101 (DR2w2a); [10]): 188 nM; IC50 (DRB1*0101 (DR1); [11]): 200 nM; IC50 (DRB1*0401 (DR4w4); [12]): 4500 nM; IC50 (DRB10404 (DR4w14); [13]): 2000 nM; IC50 (DRB1*0701 (DR7); [14]): 272 nM
KYLEFISEAIIHVLHSR [Peptide 508.01]								IC50 (DRB1*0301 (DR3w17); [8]): 25000 nM; IC50 (DRB1*1101 (DR5w11); [9]): 4000 nM; IC50 (DRB5*0101 (DR2w2a); [10]): 20000 nM; IC50 (DRB1*0101 (DR1); [11]): 294 nM; IC50 (DRB1*0401 (DR4w4); [12]): 136 nM; IC50 (DRB10404 (DR4w14); [13]): 2500 nM; IC50 (DRB1*0701 (DR7); [14]): 338 nM
CC[C@H](C)[C@H](NC(=O)[C@H](CCCNC(=N)N)NC(=O)[C@H](CO)NC(=O)[C@H](Cc1ccccc1)NC(=O)[C@@H](NC(=O)[C@H](CO)NC(=O)[C@H](CO)NC(=O)[C@H](CC(C)C)NC(=O)[C@@H]1CCCN1C(=O)[C@H](CO)NC(=O)[C@H](C)NC(=O)[C@@H](NC(=O)[C@@H](NC(=O)[C@H](CC(C)C)NC(=O)[C@@H](NC(=O)[C@@H]1CCCN1C(=O)[C@@H](N)CC(N)=O)C(C)C)[C@@H](C)O)[C@@H](C)O)[C@@H](C)CC)C(=O)O [Peptide 801.02]	300000 nM		20000 nM	714 nM	54.1 nM	6.5 nM	63.1 nM	
LSGSHLVEALYLVSGERGFF [Peptide 734.02]	30000 nM	10000 nM	2860 nM	14.4 nM	865 nM	1020 nM	124 nM	
CC(C)C[C@H](NC(=O)[C@@H](NC(=O)[C@H](C)NC(=O)[C@H](C)NC(=O)[C@H](C)NC(=O)[C@H](CCCCN)NC(=O)[C@H](Cc1ccccc1)NC(=O)[C@H](C)NC(=O)[C@@H](C)N)[C@@H](C)O)C(=O)N[C@@H](CCCCN)C(=O)N[C@@H](C)C(=O)N[C@@H](C)C(=O)N[C@H](C)C(N)=O [Peptide 871.08] (H-[dA]AFKAAATLKAA[dA]-NH2)								IC50 (DRB1*0301 (DR3w17); [15]): 15000 nM; IC50 (DRB1*1101 (DR5w11); [16]): 9 nM; IC50 (DRB5*0101 (DR2w2a); [17]): 3.9 nM; IC50 (DRB1*0101 (DR1); [18]): 1.8 nM; IC50 (DRB1*0401 (DR4w4); [19]): 1.9 nM; IC50 (DRB10404 (DR4w14); [20]): 10 nM; IC50 (DRB1*0701 (DR7); [21]): 111 nM
CC(C)C[C@H](NC(=O)[C@@H](NC(=O)[C@H](C)NC(=O)[C@H](C)NC(=O)[C@H](CCCCN)NC(=O)[C@@H](NC(=O)[C@H](Cc1ccccc1)NC(=O)[C@H](CCCCN)NC(=O)[C@@H](C)N)C(C)C)[C@@H](C)O)C(=O)N[C@@H](CCCCN)C(=O)N[C@@H](C)C(=O)N[C@@H](C)C(=O)N[C@H](C)C(N)=O [Peptide 909.02] (H-[dA]KFVKAATLKAA[dA]-NH2)								IC50 (DRB1*0301 (DR3w17); [15]): 5660 nM; IC50 (DRB1*1101 (DR5w11); [16]): 5.7 nM; IC50 (DRB5*0101 (DR2w2a); [17]): 8 nM; IC50 (DRB1*0101 (DR1); [18]): 2.5 nM; IC50 (DRB1*0401 (DR4w4); [19]): 4.7 nM; IC50 (DRB10404 (DR4w14); [20]): 33.3 nM; IC50 (DRB1*0701 (DR7); [21]): 208 nM
TSATQRLANSLVHSSNNFG [Peptide 735.02]	33300 nM	130 nM	10000 nM	111 nM	5.4 nM	13.2 nM	373 nM	
LLVIVELIPSTSS [Peptide 778.00]	60000 nM	1110 nM	2220 nM	67.6 nM	28.1 nM	82.5 nM	5000 nM	
KIAKMEKASSVFNVVNS [Peptide 526.01]								IC50 (DRB1*0301 (DR3w17); [8]): 130000 nM; IC50 (DRB1*1101 (DR5w11); [9]): 64.5 nM; IC50 (DRB5*0101 (DR2w2a); [10]): 3330 nM; IC50 (DRB1*0101 (DR1); [11]): 35.7 nM; IC50 (DRB1*0401 (DR4w4); [12]): 187 nM; IC50 (DRB10404 (DR4w14); [13]): 1280 nM; IC50 (DRB1*0701 (DR7); [14]): > 1250 nM
LVHSSNNFGAILSSTNVGS [Peptide 735.04]	15800 nM	1250 nM	5000 nM	161 nM	11 nM	12.5 nM	961 nM	
